The record followed here is patent publication US9844536B2, “3-(1H-imidazo[4,5-C]pyridin-2-yl)-1H-pyrazolo[3,4-C]pyridine and therapeutic uses thereof” (Samumed, LLC, priority 2014, dated 2017).

In test [1] the test system is Wnt pathway (Sp5-Luc reporter, SW480 cells). As to the kind of experiment: Sp5-Luc reporter gene screening assay for Wnt activity in SW480 colon carcinoma cells. The format is cell-based. Conditions: Homo sapiens. The gist of the method:
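IC50 values come from variable-slope four-parameter fits of luciferase signal normalized to DMSO wells. Stable Sp5-Luc reporter SW480 colon carcinoma cells were exposed to compounds in a 3-fold dilution series (source plates from 10 mM stock) for forty-two hours at 37 °C.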

For another test, the system named is LL29 cells. As to the kind of experiment: Inhibition of the fibrotic process (αSMA staining) in TGF-β1 treated primary human fibroblasts from IPF patients. The format is cell-based. Particulars: Fibroblast, 96 h, TGF-β1 20 ng/mL, 4 days, dose-response 10 μM to 1.87 nM, read-out: Inhibition of fibrosis EC50. The gist of the method: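 LL29 IPF lung fibroblasts in 1% FBS were stimulated with TGF-β1 (20 ng/mL) and treated 4 days at 37 °C with compound (11 points, 10 μM–1.87 nM, 0.1% DMSO). The % αSMA-positive cells, imaged after excluding SYTOX-positive dead cells, was normalized to TGF-β1/DMSO wells. EC50 came from nonlinear regression over triplicates.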

The term IC50 denotes the point on the concentration scale where inhibition reaches its midpoint. A low value points to inhibition by little substance. For orientation: EC50 means the concentration that produces a half-maximal response.

Consider `CC(=O)c1ccc(-c2nccc3[nH]c(-c4n[nH]c5cnc(-c6cncc(NC(=O)C7CCCCC7)c6)cc45)nc23)s1` [Compound 412, N-(5-(3-(4-(5-Acetylthiophen-2-yl)-1H-imidazo[4,5-c]pyridin-2-yl)-1H-pyrazolo[3,4-c]pyridin-5-yl)pyridin-3-yl)cyclohexanecarboxamide], for which the IC50 in test [1] is over 10000 nM. In addition, the EC50 with LL29 cells is at most 9 nM.
Compound `CS(=O)(=O)NCc1cc(F)cc(-c2nccc3[nH]c(-c4n[nH]c5cnc(-c6cncc(NC(=O)c7ccccc7)c6)cc45)nc23)c1` [Compound 427, N-(5-(3-(4-(3-Fluoro-5-(methylsulfonamidomethyl)phenyl)-1H-imidazo[4,5-c]pyridin-2-yl)-1H-pyrazolo[3,4-c]pyridin-5-yl)pyridin-3-yl)benzamide] registered an IC50 in test [1] of over 10000 nM. In the test on LL29 cells, the EC50 is at least 9990 nM.
The matching figures for `CCCC(=O)Nc1cncc(-c2cc3c(-c4nc5c(-c6cc(F)cc(CNS(C)(=O)=O)c6)nccc5[nH]4)n[nH]c3cn2)c1` [Compound 433, N-(5-(3-(4-(3-Fluoro-5-(methylsulfonamidomethyl)phenyl)-1H-imidazo[4,5-c]pyridin-2-yl)-1H-pyrazolo[3,4-c]pyridin-5-yl)pyridin-3-yl)butyramide]: over 10000 nM and 195 nM.
`CS(=O)(=O)NCc1cc(F)cc(-c2nccc3[nH]c(-c4n[nH]c5cnc(-c6cncc(CNCc7ccccc7)c6)cc45)nc23)c1` [Compound 439, N-(3-(2-(5-(5-((Benzylamino)methyl)pyridin-3-yl)-1H-pyrazolo[3,4-c]pyridin-3-yl)-1H-imidazo[4,5-c]pyridin-4-yl)-5-fluorobenzyl)methanesulfonamide]: the IC50 in test [1] came out at 67.3 nM. The EC50 in the test with LL29 cells was at most 9 nM.
On the same counts, the results for `CS(=O)(=O)NCc1cc(F)cc(-c2nccc3[nH]c(-c4n[nH]c5cnc(-c6cncnc6)cc45)nc23)c1` [Compound 442, N-(3-Fluoro-5-(2-(5-(pyrimidin-5-yl)-1H-pyrazolo[3,4-c]pyridin-3-yl)-1H-imidazo[4,5-c]pyridin-4-yl)benzyl)methanesulfonamide] are 30.8 nM and at most 9 nM.
On to `CCNCc1cncc(-c2cc3c(-c4nc5c(-c6cc(F)cc(NCCN(C)C)c6)nccc5[nH]4)n[nH]c3cn2)c1` [Compound 448, N^1-(3-(2-(5-(5-((Ethylamino)methyl)pyridin-3-yl)-1H-pyrazolo[3,4-c]pyridin-3-yl)-1H-imidazo[4,5-c]pyridin-4-yl)-5-fluorophenyl)-N2,N2-dimethylethane-1,2-diamine], for which, in test [1], the IC50 was determined as 394 nM. For the same compound, the EC50 with LL29 cells was at least 9990 nM.
In test [1], `CC(C)Nc1cncc(-c2cc3c(-c4nc5c(-c6cc(F)cc(NCCN(C)C)c6)nccc5[nH]4)n[nH]c3cn2)c1` [Compound 454, N^1-(3-Fluoro-5-(2-(5-(5-(isopropylamino)pyridin-3-yl)-1H-pyrazolo[3,4-c]pyridin-3-yl)-1H-imidazo[4,5-c]pyridin-4-yl)phenyl)-N2,N2-dimethylethane-1,2-diamine] gave an IC50 of 266 nM. The EC50 with LL29 cells was 1620 nM.
On to `CCCCC(=O)Nc1cncc(-c2cc3c(-c4nc5c(-c6cc(F)cc(NCCN(C)C)c6)nccc5[nH]4)n[nH]c3cn2)c1` [Compound 460, N-(5-(3-(4-(3-((2-(Dimethylamino)ethyl)amino)-5-fluorophenyl)-1H-imidazo[4,5-c]pyridin-2-yl)-1H-pyrazolo[3,4-c]pyridin-5-yl)pyridin-3-yl)pentanamide], for which it took 203 nM to reach half-maximal inhibition in test [1] (IC50). Also, in the test with LL29 cells, the EC50 is at least 9990 nM.
The matching figures for `CN(C)CCNc1cc(F)cc(-c2nccc3[nH]c(-c4n[nH]c5cnc(-c6cncc(CNCC7CCCC7)c6)cc45)nc23)c1` [Compound 466, N^1-(3-(2-(5-(5-(((Cyclopentylmethyl)amino)methyl)pyridin-3-yl)-1H-pyrazolo[3,4-c]pyridin-3-yl)-1H-imidazo[4,5-c]pyridin-4-yl)-5-fluorophenyl)-N2,N2-dimethylethane-1,2-diamine]: 342 nM and 74 nM.
In test [1], `Fc1cccc(-c2nccc3[nH]c(-c4n[nH]c5cnc(C6CCNCC6)cc45)nc23)c1` [Compound 937, 3-(4-(3-Fluorophenyl)-1H-imidazo[4,5-c]pyridin-2-yl)-5-(piperidin-4-yl)-1H-pyrazolo[3,4-c]pyridine] returned an IC50 of over 10000 nM. In the test on LL29 cells, the EC50 turned out to be 2610 nM.
The matching figures for `Fc1cccc(-c2nccc3[nH]c(-c4n[nH]c5cnc(C6=CCNCC6)cc45)nc23)c1` [Compound 938, 3-(4-(3-Fluorophenyl)-1H-imidazo[4,5-c]pyridin-2-yl)-5-(1,2,3,6-tetrahydropyridin-4-yl)-1H-pyrazolo[3,4-c]pyridine]: 125 nM and 198 nM.
On the same counts, the results for `Fc1cccc(-c2nccc3[nH]c(-c4n[nH]c5cnc(-c6cn[nH]c6)cc45)nc23)c1` [Compound 939, 3-(4-(3-Fluorophenyl)-1H-imidazo[4,5-c]pyridin-2-yl)-5-(1H-pyrazol-4-yl)-1H-pyrazolo[3,4-c]pyridine] are 1 nM and at most 9 nM.
Compound `Cc1ncc(-c2cc3c(-c4nc5c(-c6cccc(F)c6)nccc5[nH]4)n[nH]c3cn2)n1C` [Compound 941, 5-(1,2-Dimethyl-1H-imidazol-5-yl)-3-(4-(3-fluorophenyl)-1H-imidazo[4,5-c]pyridin-2-yl)-1H-pyrazolo[3,4-c]pyridine] yielded an IC50 in test [1] of 1010 nM. For the same compound, in the test on LL29 cells, the EC50 amounted to 76 nM.
On the same counts, the results for `O=C(CC1CCNCC1)Nc1cncc(-c2cc3c(-c4nc5c(-c6cccc(F)c6)nccc5[nH]4)n[nH]c3cn2)c1` [Compound 945, N-(5-(3-(4-(3-Fluorophenyl)-1H-imidazo[4,5-c]pyridin-2-yl)-1H-pyrazolo [3,4-c]pyridin-5-yl)pyridin-3-yl)-2-(piperidin-4-yl)acetamide] are over 10000 nM and 60 nM.
The matching figures for `Oc1cncc(-c2cc3c(-c4nc5c(-c6cccc(F)c6)nccc5[nH]4)n[nH]c3cn2)c1` [Compound 949, 5-(3-(4-(3-Fluorophenyl)-1H-imidazo[4,5-c]pyridin-2-yl)-1H-pyrazolo[3,4-c]pyridin-5-yl)pyridin-3-ol]: 28 nM and at least 9990 nM.
On the same counts, the results for `Fc1cccc(-c2nccc3[nH]c(-c4n[nH]c5cnc(-c6ccccn6)cc45)nc23)c1` [Compound 953, 3-(4-(3-Fluorophenyl)-1H-imidazo[4,5-c]pyridin-2-yl)-5-(pyridin-2-yl)-1H-pyrazolo[3,4-c]pyridine] are 320 nM and 1940 nM.
Take `Fc1cccc(-c2nccc3[nH]c(-c4n[nH]c5cnc(-c6cnccn6)cc45)nc23)c1` [Compound 954, 3-(4-(3-Fluorophenyl)-1H-imidazo[4,5-c]pyridin-2-yl)-5-(pyrazin-2-yl)-1H-pyrazolo[3,4-c]pyridine]: in test [1], half-maximal inhibition (IC50) was put at 20 nM. In the test with LL29 cells, the EC50 is at least 9990 nM.
In test [1], `CC(C)CC(=O)Nc1cncc(-c2cc3c(-c4nc5c(-c6cc(O)cc(F)c6)nccc5[nH]4)n[nH]c3cn2)c1` [Compound 1350, N-(5-(3-(4-(3-Fluoro-5-hydroxyphenyl)-1H-imidazo[4,5-c]pyridin-2-yl)-1H-pyrazolo[3,4-c]pyridin-5-yl)pyridin-3-yl)-3-methylbutanamide] displayed an IC50 of 135 nM. Also, the EC50 in the test on LL29 cells is 135 nM.
Regarding `COc1cc(F)cc(-c2nccc3[nH]c(-c4n[nH]c5cnc(-c6cncc(NC(=O)CC(C)C)c6)cc45)nc23)c1` [Compound 1394, N-(5-(3-(4-(3-Fluoro-5-methoxyphenyl)-1H-imidazo[4,5-c]pyridin-2-yl)-1H-pyrazolo[3,4-c]pyridin-5-yl)pyridin-3-yl)-3-methylbutanamide], in test [1], the IC50 was determined as 151 nM. Further, the EC50 with LL29 cells stood at 332 nM.
On the same counts, the results for `CN(C)CC(=O)Nc1cncc(-c2cc3c(-c4nc5c(-c6cccc(F)c6)nccc5[nH]4)n[nH]c3cn2)c1` [Compound 1437, 2-(Dimethylamino)-N-(5-(3-(4-(3-fluorophenyl)-1H-imidazo[4,5-c]pyridin-2-yl)-1H-pyrazolo[3,4-c]pyridin-5-yl)pyridin-3-yl)acetamide] are 38 nM and 342 nM.
